Experimental data taken from patent US20170202840A1, “TREATMENT OF PANCREATIC CANCER WITH LIPOSOMAL IRINOTECAN” (MERRIMACK PHARMACEUTICALS, INC., priority 2016, published 2017).
Structures can show the parent of a compound that is named as a salt. Where two headings read alike, the source gives them in different places. One block for each molecule: values may come before it.

How the values were obtained:
[1] = tested on: cytochrome P-450 isozymes; conditions: in vitro; cited from earlier work
[2] = rats, cited from earlier work
[3] = intravenous; cited from earlier work
[4] = rat, in vivo; cited from earlier work
[5] = mouse; cited from earlier work
[6] = intravenous; cited from earlier work; remark: listed apart in the source
[7] = human, in vivo; cited from earlier work
[8] = rabbits, 6 mg/kg/day; cited from earlier work
[9] = cited from earlier work
[10] = in vivo
From the text: Serum bilirubin within the institutional normal range, albumin≧3 g/dL, and Karnofsky Performance Status (KPS)≧70 were required for study entry.
TEAEs were graded by NCI CTCAE v4.0 and coded by MedDRA v14.1 for the following prespecified subgroups: sex, age (<65 vs ≧65 years), ethnicity (white vs Asian), UGT1A1*28 status, prior conventional irinotecan therapy (yes vs no), and prior 5-FU therapy (yes vs no). All TEAEs were followed until resolution or patient discontinuation. Analyses were performed on the safety population (ie, those who received≧1 dose of study medication).
All TEAEs were followed until resolution or patient discontinuation. The safety analysis population included all patients who received≧1 dose of study drug. The presence of the UGT1A1*28 allele was determined by genotype testing, and homozygous patients were identified (A7/TA7 genotype)

[11] = dog, in vivo

Molecule: CCc1c2c(nc3ccc(O)cc13)-c1cc3c(c(=O)n1C2)COC(=O)[C@]3(O)CC [SN-38]
Inhibition of cytochrome P-450 isozymes [1]: do not inhibit cytochrome P-450 isozymes

Molecule: CCc1c2c(nc3ccc(OC(=O)N4CCC(N5CCCCC5)CC4)cc13)-c1cc3c(c(=O)n1C2)COC(=O)[C@]3(O)CC [irinotecan HCl, (5) 4,11-diethyl-3,4,12,14-tetrahydro-4-hydroxy-3,14-dioxo1H-pyrano[3′,4′:6,7]-indolizino[1,2 b]quinolin-9-yl-[1,4′bipiperidine]-1′-carboxylate, monohydrochloride, trihydrate]
Effects in offspring, dams dosed after organogenesis through weaning ([2]; 6 mg/kg/day): decreased learning ability and decreased female body weights in the offspring
Doses giving structural abnormalities and growth delays [2]: greater than 1.2 mg/kg/day
Time to appearance of radioactivity in milk [3]: ≤ 5 min
Carcinogenicity finding [4]: significant linear trend between irinotecan HCl dosage and the incidence of combined uterine horn endometrial stromal polyps and endometrial stromal sarcomas
Clastogenicity in vivo [5]: clastogenic
Doses without significant adverse effects on fertility and general reproductive performance [6]: up to 6 mg/kg/day
Effect of dexamethasone (moderate CYP3A4 inducer) on pharmacokinetics of irinotecan [7]: does not alter the pharmacokinetics of irinotecan
Exposure to irinotecan and SN-38 with concomitant ketoconazole [7]: increased exposure
Exposure to irinotecan or SN-38 with CYP3A4 enzyme-inducing anticonvulsants or St. John's wort [7]: substantially reduced
Urinary excretion of SN-38 [7]: < 1%
Urinary excretion of SN-38 glucuronide [7]: 3%

Molecule: CCc1c2c(nc3ccc(OC(=O)N4CCC(N5CCCCC5)CC4)cc13)-c1cc3c(c(=O)n1C2)COC(=O)[C@]3(O)CC [irinotecan, (5) 4,11-diethyl-3,4,12,14-tetrahydro-4-hydroxy-3,14-dioxo1H-pyrano[3′,4′: 6,7]-indolizino[1,2b]quinolin-9-yl-[1,4′bipiperidine]-1′-carboxylate]
Embryo-fetal effects, intravenous during organogenesis ([2]; 6 mg/kg/day): increased post-implantation loss and decreased numbers of live fetuses
Placental transfer ([2]; intravenous): crosses the placenta
Embryo-fetal effects, intravenous during organogenesis [8]: increased post-implantation loss and decreased numbers of live fetuses
Incidence of grade 4 neutropenia ([9]; 350 mg/m2 once every-3-weeks, homozygous UGT1A1*28): ≤ 50%
Incidence of grade 4 neutropenia ([9]; heterozygous (UGT1A1 6/7 genotype)): 12.5%
Incidence of grade 4 neutropenia ([9]; homozygous wild-type (UGT1A1 6/6 genotype)): no grade 4 neutropenia was observed
Inhibition of cytochrome P-450 isozymes [1]: do not inhibit cytochrome P-450 isozymes

Doses with atrophy of male and female reproductive organs [11]: ≥ 13 mg/kg
Molecule: irinotecan sucrose octasulfate salt liposome injection [MM-398]
Incidence of neutropenic sepsis [10]: 0.8%
